Assay results from patent publication US11044908B2, “Reactive antibacterial compound and preparation method thereof” (SHENZHEN UNIVERSITY, priority 2015, dated 2021).
Converted amounts (≈) assume the structure as drawn.

How the values were obtained:
Type in all cases: cell-based
[1] = test system: E. coli (American Type Culture Collection ATCC 25922); assay: Minimum inhibitory concentration (MIC) test; conditions: E. coli ATCC 25922; 24 h culture
Description: (§1) The minimum inhibitory concentration (MIC) is the lowest concentration of antibacterial agents that can inhibit the visible growth of bacteria after 24 h culture in a specific environment. Methods for determining the minimum inhibitory concentration can be a constant broth dilution method, a trace broth dilution method, an agar dilution method or an E experiment.

S. aureas (ATCC 6538) = assay: Minimum inhibitory concentration (MIC) test; conditions: 24 h culture
Description: as §1

E. coli = assay: Durable antibacterial activity of glass surfaces modified by antibacterial agents (plate/colony counting method)
S. aureas = assay: as above

Structure (SMILES): C[N+](C)(CCCS(=O)(=O)[O-])CCNC(=O)NC1CCC(CC2CCC(N=C=O)CC2)CC1 (stereo not drawn) [Example 5]
- Minimum inhibitory concentration (MIC) [1]: 10 mM (≈ 4730 µg/mL)
- Minimum inhibitory concentration (MIC) (S. aureas (ATCC 6538)): 7 mM (≈ 3310 µg/mL)
- Antibacterial activity of modified glass surface (plate counting method) (E. coli; wash number 0): 99.99%
- Antibacterial activity of modified glass surface (plate counting method) (E. coli; wash number 10): 99.7%
- Antibacterial activity of modified glass surface (plate counting method) (E. coli; wash number 50): 99.0%
- Antibacterial activity of modified glass surface (plate counting method) (E. coli; wash number 100): 96.5%
- Antibacterial activity of modified glass surface (plate counting method) (S. aureas; wash number 0): 99.99%
- Antibacterial activity of modified glass surface (plate counting method) (S. aureas; wash number 10): 99.9%
- Antibacterial activity of modified glass surface (plate counting method) (S. aureas; wash number 50): 99.5%
- Antibacterial activity of modified glass surface (plate counting method) (S. aureas; wash number 100): 98.5%

Structure (SMILES): CC1(C)CC(NC(=O)OCC[N+](C)(C)CCCC(=O)[O-])CC(C)(CN=C=O)C1 (stereo not drawn) [Example 11]
- Minimum inhibitory concentration (MIC) [1]: 10 mM (≈ 3980 µg/mL)
- Minimum inhibitory concentration (MIC) (S. aureas (ATCC 6538)): 8 mM (≈ 3180 µg/mL)
- Antibacterial activity of modified glass surface (plate counting method) (E. coli; wash number 0): 99.99%
- Antibacterial activity of modified glass surface (plate counting method) (E. coli; wash number 10): 99.8%
- Antibacterial activity of modified glass surface (plate counting method) (E. coli; wash number 50): 97.1%
- Antibacterial activity of modified glass surface (plate counting method) (E. coli; wash number 100): 94.5%
- Antibacterial activity of modified glass surface (plate counting method) (S. aureas; wash number 0): 99.99%
- Antibacterial activity of modified glass surface (plate counting method) (S. aureas; wash number 10): 99.9%
- Antibacterial activity of modified glass surface (plate counting method) (S. aureas; wash number 50): 98.3%
- Antibacterial activity of modified glass surface (plate counting method) (S. aureas; wash number 100): 95.8%

Structure (SMILES): CC[N+](CC)(CCCS(=O)(=O)[O-])CCOC(=O)Nc1ccc(Cc2ccc(N=C=O)cc2)cc1 [Example 2]
- Minimum inhibitory concentration (MIC) [1]: 12 mM (≈ 5880 µg/mL)
- Minimum inhibitory concentration (MIC) (S. aureas (ATCC 6538)): 10 mM (≈ 4900 µg/mL)
- Antibacterial activity of modified glass surface (plate counting method) (E. coli; wash number 0): 99.99%
- Antibacterial activity of modified glass surface (plate counting method) (E. coli; wash number 10): 99.9%
- Antibacterial activity of modified glass surface (plate counting method) (E. coli; wash number 50): 97.3%
- Antibacterial activity of modified glass surface (plate counting method) (E. coli; wash number 100): 95.9%
- Antibacterial activity of modified glass surface (plate counting method) (S. aureas; wash number 0): 99.99%
- Antibacterial activity of modified glass surface (plate counting method) (S. aureas; wash number 10): 99.9%
- Antibacterial activity of modified glass surface (plate counting method) (S. aureas; wash number 50): 98.9%
- Antibacterial activity of modified glass surface (plate counting method) (S. aureas; wash number 100): 96.6%

Structure (SMILES): Cc1cc(NC(=O)NC2CC(C)(C)CC(C)(CN=C=O)C2)cc(C)[n+]1CCCS(=O)(=O)[O-] (stereo not drawn) [Example 9]
- Minimum inhibitory concentration (MIC) [1]: 10 mM (≈ 4670 µg/mL)
- Minimum inhibitory concentration (MIC) (S. aureas (ATCC 6538)): 8 mM (≈ 3730 µg/mL)
- Antibacterial activity of modified glass surface (plate counting method) (E. coli; wash number 0): 99.99%
- Antibacterial activity of modified glass surface (plate counting method) (E. coli; wash number 10): 99.8%
- Antibacterial activity of modified glass surface (plate counting method) (E. coli; wash number 50): 97.1%
- Antibacterial activity of modified glass surface (plate counting method) (E. coli; wash number 100): 94.3%
- Antibacterial activity of modified glass surface (plate counting method) (S. aureas; wash number 0): 99.99%
- Antibacterial activity of modified glass surface (plate counting method) (S. aureas; wash number 10): 99.9%
- Antibacterial activity of modified glass surface (plate counting method) (S. aureas; wash number 50): 98.5%
- Antibacterial activity of modified glass surface (plate counting method) (S. aureas; wash number 100): 95.2%

Structure (SMILES): CC1(C)CC(NC(=O)OCC[N+](C)(C)CCS(=O)(=O)[O-])CC(C)(CN=C=O)C1 (stereo not drawn) [Example 10]
- Minimum inhibitory concentration (MIC) [1]: 12 mM (≈ 5030 µg/mL)
- Minimum inhibitory concentration (MIC) (S. aureas (ATCC 6538)): 9 mM (≈ 3780 µg/mL)
- Antibacterial activity of modified glass surface (plate counting method) (E. coli; wash number 0): 99.99%
- Antibacterial activity of modified glass surface (plate counting method) (E. coli; wash number 10): 99.8%
- Antibacterial activity of modified glass surface (plate counting method) (E. coli; wash number 50): 97.5%
- Antibacterial activity of modified glass surface (plate counting method) (E. coli; wash number 100): 94.1%
- Antibacterial activity of modified glass surface (plate counting method) (S. aureas; wash number 0): 99.99%
- Antibacterial activity of modified glass surface (plate counting method) (S. aureas; wash number 10): 99.9%
- Antibacterial activity of modified glass surface (plate counting method) (S. aureas; wash number 50): 98.9%
- Antibacterial activity of modified glass surface (plate counting method) (S. aureas; wash number 100): 95.3%

Structure (SMILES): C[N+](C)(CCOC(=O)NCCCCCCN=C=O)CC(=O)[O-] [Example 3]
- Minimum inhibitory concentration (MIC) [1]: 11 mM (≈ 3470 µg/mL)
- Minimum inhibitory concentration (MIC) (S. aureas (ATCC 6538)): 8 mM (≈ 2520 µg/mL)
- Antibacterial activity of modified glass surface (plate counting method) (E. coli; wash number 0): 99.99%
- Antibacterial activity of modified glass surface (plate counting method) (E. coli; wash number 10): 99.8%
- Antibacterial activity of modified glass surface (plate counting method) (E. coli; wash number 50): 98.5%
- Antibacterial activity of modified glass surface (plate counting method) (E. coli; wash number 100): 96.5%
- Antibacterial activity of modified glass surface (plate counting method) (S. aureas; wash number 0): 99.99%
- Antibacterial activity of modified glass surface (plate counting method) (S. aureas; wash number 10): 99.9%
- Antibacterial activity of modified glass surface (plate counting method) (S. aureas; wash number 50): 99.0%
- Antibacterial activity of modified glass surface (plate counting method) (S. aureas; wash number 100): 97.2%
